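Results reflect a 48-hour exposure of cells in 96-well plates to compound at five concentrations. The concentration for full growth arrest is given as TGI.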
Test system: SF-295 CNS
Assay: inhibition of tumour cell growth, NCI panel, 48 h

Structure (SMILES)	TGI [µM]
O=C(O)C(Cl)(Cl)Cl	> 100

Test system: HOP-62 NSCLC
Assay: inhibition of tumour cell growth, NCI panel, 48 h

Structure (SMILES)	TGI [µM]
C=CCCCCC1CCC2CCC(CCCCC=C)N12 (configuration not stated)	33
COc1cc(OC)c2c(=O)cc(-c3ccc(OC)c(OC)c3OC)oc2c1	> 100
CCCCCCCCCCCCCCCC(=O)OCCOCCOCCOCc1ccccc1	> 100

Test system: RPMI-8226 leukemia
Assay: inhibition of tumour cell growth, NCI panel, 48 h

Structure (SMILES)	TGI [µM]
C=CCCCCC1CCC2CCC(CCCCC=C)N12 (configuration not stated)	41
COc1cc(OC)c2c(=O)cc(-c3ccc(OC)c(OC)c3OC)oc2c1	> 100
O=C(O)C(Cl)(Cl)Cl	> 100

Test system: 786-0 renal
Assay: inhibition of tumour cell growth, NCI panel, 48 h

Structure (SMILES)	TGI [µM]
C=CCCCCC1CCC2CCC(CCCCC=C)N12 (configuration not stated)	26.9
COc1cc(OC)c2c(=O)cc(-c3ccc(OC)c(OC)c3OC)oc2c1	> 100
CCCCCCCCCCCCCCCC(=O)OCCOCCOCCOCc1ccccc1	> 100

Test system: UACC-257 melanoma
Assay: inhibition of tumour cell growth, NCI panel, 48 h

Structure (SMILES)	TGI [µM]
C=CCCCCC1CCC2CCC(CCCCC=C)N12 (configuration not stated)	29.3
COc1cc(OC)c2c(=O)cc(-c3ccc(OC)c(OC)c3OC)oc2c1	> 100
CCCCCCCCCCCCCCCC(=O)OCCOCCOCCOCc1ccccc1	> 100
O=C(O)C(Cl)(Cl)Cl	> 100

Test system: ACHN renal
Assay: inhibition of tumour cell growth, NCI panel, 48 h

Structure (SMILES)	TGI [µM]
C=CCCCCC1CCC2CCC(CCCCC=C)N12 (configuration not stated)	28.5
COc1cc(OC)c2c(=O)cc(-c3ccc(OC)c(OC)c3OC)oc2c1	> 100
CCCCCCCCCCCCCCCC(=O)OCCOCCOCCOCc1ccccc1	> 100
O=C(O)C(Cl)(Cl)Cl	> 100

Test system: IGROV1 ovarian
Assay: inhibition of tumour cell growth, NCI panel, 48 h

Structure (SMILES)	TGI [µM]
COc1cc(OC)c2c(=O)cc(-c3ccc(OC)c(OC)c3OC)oc2c1	> 100
CCCCCCCCCCCCCCCC(=O)OCCOCCOCCOCc1ccccc1	> 100
O=C(O)C(Cl)(Cl)Cl	> 100

Test system: SN12C renal
Assay: inhibition of tumour cell growth, NCI panel, 48 h

Structure (SMILES)	TGI [µM]
C=CCCCCC1CCC2CCC(CCCCC=C)N12 (configuration not stated)	29.9
COc1cc(OC)c2c(=O)cc(-c3ccc(OC)c(OC)c3OC)oc2c1	> 100
CCCCCCCCCCCCCCCC(=O)OCCOCCOCCOCc1ccccc1	> 100
O=C(O)C(Cl)(Cl)Cl	> 100

Test system: U251 CNS
Assay: inhibition of tumour cell growth, NCI panel, 48 h

Structure (SMILES)	TGI [µM]
C=CCCCCC1CCC2CCC(CCCCC=C)N12 (configuration not stated)	34.6
CCCCCCCCCCCCCCCC(=O)OCCOCCOCCOCc1ccccc1	> 100
O=C(O)C(Cl)(Cl)Cl	> 100

Test system: UACC-62 melanoma
Assay: inhibition of tumour cell growth, NCI panel, 48 h

Structure (SMILES)	TGI [µM]
C=CCCCCC1CCC2CCC(CCCCC=C)N12 (configuration not stated)	30.6
COc1cc(OC)c2c(=O)cc(-c3ccc(OC)c(OC)c3OC)oc2c1	> 100
CCCCCCCCCCCCCCCC(=O)OCCOCCOCCOCc1ccccc1	> 100

Test system: COLO 205 colon
Assay: inhibition of tumour cell growth, NCI panel, 48 h

Structure (SMILES)	TGI [µM]
C=CCCCCC1CCC2CCC(CCCCC=C)N12 (configuration not stated)	32.5
COc1cc(OC)c2c(=O)cc(-c3ccc(OC)c(OC)c3OC)oc2c1	> 100
CCCCCCCCCCCCCCCC(=O)OCCOCCOCCOCc1ccccc1	> 100
O=C(O)C(Cl)(Cl)Cl	> 100

Test system: SK-OV-3 ovarian
Assay: inhibition of tumour cell growth, NCI panel, 48 h

Structure (SMILES)	TGI [µM]
COc1cc(OC)c2c(=O)cc(-c3ccc(OC)c(OC)c3OC)oc2c1	> 100
O=C(O)C(Cl)(Cl)Cl	> 100

Test system: NCI-H522 lung
Assay: inhibition of tumour cell growth, NCI panel, 48 h

Structure (SMILES)	TGI [µM]
C=CCCCCC1CCC2CCC(CCCCC=C)N12 (configuration not stated)	28.3
COc1cc(OC)c2c(=O)cc(-c3ccc(OC)c(OC)c3OC)oc2c1	> 100

Test system: KM12 colon
Assay: inhibition of tumour cell growth, NCI panel, 48 h

Structure (SMILES)	TGI [µM]
C=CCCCCC1CCC2CCC(CCCCC=C)N12 (configuration not stated)	29.6
COc1cc(OC)c2c(=O)cc(-c3ccc(OC)c(OC)c3OC)oc2c1	> 100
CCCCCCCCCCCCCCCC(=O)OCCOCCOCCOCc1ccccc1	> 100
O=C(O)C(Cl)(Cl)Cl	> 100

Test system: CCRF-CEM leukemia
Assay: inhibition of tumour cell growth, NCI panel, 48 h

Structure (SMILES)	TGI [µM]
C=CCCCCC1CCC2CCC(CCCCC=C)N12 (configuration not stated)	37.7
O=C(O)C(Cl)(Cl)Cl	> 100

Test system: A498 renal
Assay: inhibition of tumour cell growth, NCI panel, 48 h

Structure (SMILES)	TGI [µM]
CCCCCCCCCCCCCCCC(=O)OCCOCCOCCOCc1ccccc1	> 100

Test system: M14 melanoma
Assay: inhibition of tumour cell growth, NCI panel, 48 h

Structure (SMILES)	TGI [µM]
C=CCCCCC1CCC2CCC(CCCCC=C)N12 (configuration not stated)	31.3
